Test results: patent US20060134064A1, “Combined treatment with interferon-alpha and an epidermal growth factor receptor kinase inhibitor” (priority 2004, published 2006)
Where two headings read alike, the source gives them in different places.

What was measured:
[1] = test system: colorectal cancer; conditions: cited from earlier work
[2] = test system: BL-17/0/X1; assay: Crystal violet nuclear staining assay, bladder cancer cell line BL-17/0/X1; assay type: cell-based; conditions: 2.5 μg/ml erlotinib, 96 h
Description: (§1) It is known that 40-60% of bladder cancers over-express EGFR which provides an opportunity for targeted therapy.

[3] = test system: MGHU3; assay: Crystal violet nuclear staining assay, bladder cancer cell line MGHU3; assay type: cell-based; conditions: 2.5 μg/ml erlotinib, 96 h
Description: as §1

[4] = test system: BL-17/2; assay: Crystal violet nuclear staining assay, bladder cancer cell line BL-17/2; assay type: cell-based; conditions: 2.5 μg/ml erlotinib, 96 h
Description: as §1

[5] = test system: HT1376; assay: Crystal violet nuclear staining assay, bladder cancer cell line HT1376; assay type: cell-based; conditions: 2.5 μg/ml erlotinib, 96 h
Description: as §1

[6] = test system: bladder cancer cell lines; conditions: 10 μg/ml erlotinib; 8 of 9 cell lines
Description: Three different experimental schedules were performed: Single drug exposure over a range of concentrations of erlotinib, combination with IFN-α, and pre-treatment with IFN-α followed by erlotinib combined with IFN-α.
Cells were grown in 24-well plates and the antiproliferative effect was measured by crystal violet nuclear staining assay.

[7] = test system: HER1/EGFR; assay: Cell-surface HER1/EGFR expression by immunofluorescent flow cytometry after IFNα treatment; assay type: cell-based, human; conditions: IFNα 100 IU/mL
Description: The cell-surface HER1/EGFR levels at 72 h and 96 h of culture, with or without IFN-α (50 or 100 IU/ml), were measured by immunofluorescent flow cytometry. Cells were seeded in 60×15 mm dishes (FALCON™, BD) and treated with 100 IU/mL of IFN-α. The treated and untreated cells were harvested at different time intervals using 0.02% EDTA in PBS, then washed twice with ice-cold PBS and counted. The mouse monoclonal antibody against the extracellular domain of human HER1/EGFR (Catlog No: MO886, DAKO) diluted 1 in 100 in PBS was added to the cells (1×10^6 cells in 100 μL volume), while an irrelevant IgG 2b was used as the isotype-matched antibody control. After 60 min on ice, cells were washed and incubated with 100 μL of fluorescein-isothiocyanate (FITC)-conjugated goat-anti-mouse IgG (Catlog No: 81-6511, ZYMED), 1 in 200 dilution in PBS, on ice for 30 min in the dark. The cells were then washed again twice and resuspended in 1% formaldehyde in PBS. Cell surface immunofluorescence was analysed on a FACSCalibur (BD) using CELLQuest software equipped with a 5 W argon ion laser tuned to 488 nm at 200 mW. Levels of protein expression were estimated as the geometric mean of fluorescence intensity (MFI) of anti-HER1/EGFR minus that of the isotype-matched antibody control. Ten thousand singlet and viable cells of the individual treated and control samples were measured. Duplicate experiments with triplicate samples were performed for all cells.
Cell-surface HER1/EGFR expression by untreated cell lines: All cell lines were measured first to obtain an untreated level of HER1/EGFR. Cells were harvested after 72 h of culture and measured by flow cytometry. The HER1/EGFR value was calculated as the geometric mean fluorescence intensity of anti-HER1/EGFR detection minus that of isotype control. SW620 cells were HER1/EGFR-negative. Other cell lines including DLD-1, HCT116, HT29, KM12SM, LIM2099, LIM2408, LOVO and SW480 all positively expressed HER1/EGFR.
The relationship between HER1/EGFR expression and IFNα treatment was assessed in all cell lines. Cells were all cultured with or without 100 IU/mL of IFNα (which mimics serum levels in humans given subcutaneous interferon (Robinson S. P., et al. (1990) Breast Cancer Res. Treat.; 5:95-101) for 72 and 96 h. The cell-surface HER1/EGFR expression at 72 h of culture from untreated and treated groups of individual cell lines detected using anti-HER1/EGFR antibody minus isotype control is shown in FIG. 1. IFNα treatment was associated with significant up-regulation of cell-surface HER1/EGFR expression in 7 of 8 HER1/EGFR-positive cell lines, including DLD-1 (HER1/EGFR level (mean plus/minus standard deviation of the mean) treated versus that untreated: 17.89+0.60/10.86+0.51, paired t test, p=0.005; 95% confidence interval of the difference: 4.88−9.16), HCT116 (22.75+0.79/7.80+0.22, p<0.001; 13.52−16.36), HT29 (11.12+0.20/8.58+0.24, p=0.004; 1.82−3.27), LIM2099 (22.19+0.56/12.82+0.52, p=0.001; 7.87−10.86), LIM2408 (22.93+0.53/10.77+0.21, p=0.001; 10.35−13.97), LOVO (14.77+0.34/8.12+0.25, p=0.003; 5.2−8.1), and SW480 (27.09+0.76/14.10+0.33, p=0.002; 10.66−15.32) cells. In contrast, HER1/EGFR expression levels were not increased in KM12SM cells after IFNα treatment. […] Consistently, at 96 h of culture the cell-surface HER1/EGFR expression from untreated and treated groups of individual cell lines followed the same trend. Since up-regulation of HER1/EGFR expression was sustained between 72 and 96 h, we thus chose 72 h for IFNα pretreatment and 96 h for combination treatment introduced below.

O=c1[nH]cc(F)c(=O)[nH]1 [5-fluorouracil]
response rates ([1]; single-agent treatment, advanced colorectal cancer): about 10%

C#Cc1cccc(Nc2ncnc3cc(OCCOC)c(OCCOC)cc23)c1 [erlotinib, [6,7-bis(2-methoxyethoxy)-4-quinazolin-4-yl]-(3-ethynylphenyl)amine]
growth rate of control cells [2]: < 60%
growth rate of control cells [3]: < 60%
growth rate of control cells [4]: < 60%
growth rate of control cells [5]: < 60%
growth rate of control [6]: < 60%

O=C1[O][Pt]2([NH][C@@H]3CCCC[C@H]3[NH]2)[O]C1=O [oxaliplatin]
response rates ([1]; combined with 5-FU and leucovorin, first-line treatment for colorectal cancer): 25-40%

IFNα
HER1/EGFR level (geometric mean fluorescence intensity minus isotype control), treated ([7]; DLD-1 cells, 72 h, mean plus/minus SD): 17.89 ± 0.60
HER1/EGFR level (geometric mean fluorescence intensity minus isotype control), treated ([7]; HCT116 cells, 72 h, mean plus/minus SD): 22.75 ± 0.79
Induction of HER1/EGFR expression by IFNα treatment ([7]; HER1/EGFR-negative SW620 cells, 72 h): unable to induce HER1/EGFR expression
HER1/EGFR level (geometric mean fluorescence intensity minus isotype control), treated ([7]; HT29 cells, 72 h, mean plus/minus SD): 11.12 ± 0.20
HER1/EGFR expression levels after IFNα treatment ([7]; KM12SM cells, 72 h): not increased
HER1/EGFR level (geometric mean fluorescence intensity minus isotype control), treated ([7]; LIM2099 cells, 72 h, mean plus/minus SD): 22.19 ± 0.56
HER1/EGFR level (geometric mean fluorescence intensity minus isotype control), treated ([7]; LIM2408 cells, 72 h, mean plus/minus SD): 22.93 ± 0.53
HER1/EGFR level (geometric mean fluorescence intensity minus isotype control), treated ([7]; LOVO cells, mean plus/minus SD (FIG. 1: LOVO measured at 24 h)): 14.77 ± 0.34
HER1/EGFR level (geometric mean fluorescence intensity minus isotype control), treated ([7]; SW480 cells, 72 h, mean plus/minus SD): 27.09 ± 0.76
